Earlier results in patent US12018060B2 (HANMI PHARM CO., LTD., priority 2014, dated 2024).

Conditions: after one year of administration

In the case of CCCCCCCCCCC[C@@H](C[C@@H]1OC(=O)[C@H]1CCCCCC)OC(=O)[C@H](CC(C)C)NC=O [Orlist®, Orlistat], the body weight decrease is given as “about 4 kg”.
